Measured values reported in patent US20240124444A1 (Celgene Corporation, priority 2020, published 2024).
Where two headings read alike, the source gives them in different places.

Test system: C. parvum strain UGA1
Assay: C. parvum growth inhibition assay (Nluc luminescence in HCT-8 cells)
Type: cell-based, Cryptosporidium parvum
Details: Cryptosporidium parvum; for inhibition at 1 µM / inhibition at 10 µM: HCT-8; for inhibition at 1 µM: read-out: % inh @ 1 uM C. parvum; for inhibition at 10 µM: read-out: % inh @ 10 uM C. parvum; for EC50: HCT-8, 48 h, C. parvum growth inhibition in HCT-8 cells, 48 hours, 6 concentrations 10-0.04 μM
[1] = single point inhibition @ 10 uM
[2] = single point inhibition at 1 uM
[3] = single point inhibition at 10 uM

SMILES	inhibition at 1 µM (single point inhibition @ 1 uM) [%]	inhibition at 10 µM [1] [%]	EC50 [µM]	inhibition at 1 µM [2] [%]	inhibition at 10 µM [3] [%]
CN(CC(F)(F)F)c1cc(-c2cc3cnc(NC4CCOCC4)cc3[nH]2)ncn1 [Example 44, 2-(6-(Methyl(2,2,2-trifluoroethyl)amino)pyrimidin-4-yl)-N-(tetrahydro-2H-pyran-4-yl)-1H-pyrrolo[3,2-c]pyridin-6-amine]	0 to 33	67 to 100	–	–	–
Cc1ccc(-c2cc3cnc(NC4CCOCC4)cc3[nH]2)cc1 [Example 351, N-(tetrahydro-2H-pyran-4-yl)-2-p-tolyl-1H-pyrrolo[3,2-c]pyridin-6-amine]	–	–	> 1	–	–
Cn1c(-c2cc(C(F)(F)F)ncn2)cc2cnc(NC(=O)C3CC3)cc21 [Example 130, N-(1-methyl-2-(6-(trifluoromethyl)pyrimidin-4-yl)-1H-pyrrolo[3,2-c]pyridin-6-yl)cyclopropanecarboxamide]	–	–	> 1	–	–
CC(C)n1cc(C(=O)Nc2cc3[nH]c(-c4ccncc4)cc3cn2)cn1 [Example 162, 1-isopropyl-N-(2-(pyridin-4-yl)-1H-pyrrolo[3,2-c]pyridin-6-yl)-1H-pyrazole-4-carboxamide]	0 to 33	67 to 100	–	–	–
Cc1cc(-c2cc3cnc(NC(=O)c4cnn(C5CCC5)c4)cc3[nH]2)ccn1 [Example 205, 1-cyclobutyl-N-(2-(2-methylpyridin-4-yl)-1H-pyrrolo[3,2-c]pyridin-6-yl)-1H-pyrazole-4-carboxamide]	–	–	–	0 to 33	67 to 100
Cc1cc(-c2cc3cnc(NC(=O)N4CCCC4)cc3[nH]2)ccn1 [Example 261, N-(2-(2-methylpyridin-4-yl)-1H-pyrrolo[3,2-c]pyridin-6-yl)pyrrolidine-1-carboxamide]	–	–	–	0 to 33	0 to 33
CC(C)n1cc(C(=O)Nc2cc3c(cn2)cc(-c2ccnc(NC4CC4)n2)n3C)cn1 [Example 132, N-(2-(2-(cyclopropylamino)pyrimidin-4-yl)-1-methyl-1H-pyrrolo[3,2-c]pyridin-6-yl)-1-isopropyl-1H-pyrazole-4-carboxamide]	0 to 33	67 to 100	–	–	–
O=C(Nc1cc2[nH]c(-c3nc[nH]n3)cc2cn1)C1CC1 [Example 201, N-(2-(1H-1,2,4-triazol-3-yl)-1H-pyrrolo[3,2-c]pyridin-6-yl)cyclopropanecarboxamide]	–	–	–	0 to 33	67 to 100
COc1ccc(C(=O)Nc2cc3[nH]c(-c4ccnc(C)c4)cc3cn2)cc1OC [Example 296, 3,4-dimethoxy-N-(2-(2-methylpyridin-4-yl)-1H-pyrrolo[3,2-c]pyridin-6-yl)benzamide]	–	–	–	0 to 33	0 to 33
Cc1c[nH]c2cc(NC(=O)C3CC3)ncc12 [Example 115, N-(3-methyl-1H-pyrrolo[3,2-c]pyridin-6-yl)cyclopropanecarboxamide]	–	–	> 1	–	–
Cn1cc(C(=O)Nc2cc3[nH]c(-c4cnco4)cc3cn2)cn1 [Example 64, 1-methyl-N-(2-(oxazol-5-yl)-1H-pyrrolo[3,2-c]pyridin-6-yl)-1H-pyrazole-4-carboxamide]	0 to 33	33 to 66	> 1	–	–
FC(F)(F)CNc1cc(-c2cc3cnc(NC4CCOCC4)cc3[nH]2)ccn1 [Example 363, N-(tetrahydro-2H-pyran-4-yl)-2-(2-(2,2,2-trifluoroethylamino)pyridin-4-yl)-1H-pyrrolo[3,2-c]pyridin-6-amine]	–	–	< 0.5	–	–
Cc1nn(C)cc1C(=O)Nc1cc2[nH]c(-c3ccncc3)cc2cn1 [Example 278, 1,3-dimethyl-N-(2-(pyridin-4-yl)-1H-pyrrolo[3,2-c]pyridin-6-yl)-1H-pyrazole-4-carboxamide]	–	–	–	0 to 33	0 to 33
Cc1cc(-c2[nH]c3cc(NC4CCOC4)ncc3c2C)ccn1 (stereo in doubt) [Example 367, (S)-3-methyl-2-(2-methylpyridin-4-yl)-N-(tetrahydrofuran-3-yl)-1H-pyrrolo[3,2-c]pyridin-6-amine]	–	–	> 1	–	–
O=C(Nc1cc2[nH]c(-c3ccncc3)cc2cn1)C1CCCC1 [Example 137, N-(2-(pyridin-4-yl)-1H-pyrrolo[3,2-c]pyridin-6-yl)cyclopentanecarboxamide]	0 to 33	67 to 100	–	–	–
Cn1c(-c2ccnc(C(F)(F)F)n2)cc2cnc(NC(=O)C3CC3)cc21 [Example 302, N-(1-methyl-2-(2-(trifluoromethyl)pyrimidin-4-yl)-1H-pyrrolo[3,2-c]pyridin-6-yl)cyclopropanecarboxamide]	–	–	–	0 to 33	0 to 33
Cn1ncc2ccc(Nc3cc4[nH]c(-c5ccncc5)cc4cn3)cc21 [Example 195, 1-methyl-N-(2-(pyridin-4-yl)-1H-pyrrolo[3,2-c]pyridin-6-yl)-1H-indazol-6-amine]	67 to 100	67 to 100	–	–	–
CN1CCC(C(=O)Nc2cc3[nH]c(C(F)(F)F)cc3cn2)CC1 [Example 109, 1-methyl-N-(2-(trifluoromethyl)-1H-pyrrolo[3,2-c]pyridin-6-yl)piperidine-4-carboxamide]	–	–	> 1	–	–

SMILES	inhibition at 1 µM (single point inhibition @ 1 uM) [%]	inhibition at 10 µM [1] [%]	EC50 [µM]	inhibition at 1 µM [2] [%]	inhibition at 10 µM [3] [%]
Cc1cc(-c2cc3cnc(NS(=O)(=O)C4CC4)cc3[nH]2)ccn1 [Example 97, N-(2-(2-methylpyridin-4-yl)-1H-pyrrolo[3,2-c]pyridin-6-yl)cyclopropanesulfonamide]	–	–	> 1	–	–
Cc1cc(-c2cc3cnc(NC(=O)C4CC4)cc3n2CCN)ncn1 [Example 75, N-(1-(2-aminoethyl)-2-(6-methylpyrimidin-4-yl)-1H-pyrrolo[3,2-c]pyridin-6-yl)cyclopropanecarboxamide]	–	–	> 1	–	–
Cc1cc(-c2[nH]c3cc(NC4CCOC4)ncc3c2C)ccn1 (stereo in doubt) [Example 368, (R)-3-methyl-2-(2-methylpyridin-4-yl)-N-(tetrahydrofuran-3-yl)-1H-pyrrolo[3,2-c]pyridin-6-amine]	–	–	> 1	–	–
Cc1cc(-c2cc3cnc(NC(=O)c4cnn(C)c4)cc3[nH]2)ncn1 [Example 328, 1-methyl-N-(2-(6-methylpyrimidin-4-yl)-1H-pyrrolo[3,2-c]pyridin-6-yl)-1H-pyrazole-4-carboxamide]	–	–	–	0 to 33	0 to 33
Cc1nn(C)cc1C(=O)Nc1cc2[nH]c(-c3ccnc(OC(C)C(F)(F)F)n3)cc2cn1 (stereo in doubt) [Example 136, (S)-1,3-dimethyl-N-(2-(2-(1,1,1-trifluoropropan-2-yloxy)pyrimidin-4-yl)-1H-pyrrolo[3,2-c]pyridin-6-yl)-1H-pyraozle-4-carboxamide]	0 to 33	67 to 100	–	–	–
CC(C)CNc1cc2[nH]c(-c3cccnc3)cc2cn1 [Example 273, N-isobutyl-2-(pyridin-3-yl)-1H-pyrrolo[3,2-c]pyridin-6-amine]	–	–	–	0 to 33	0 to 33
Cc1cc(-c2cc3cnc(NC4CCN(C)CC4)cc3[nH]2)ccn1 [Example 112, N-(1-methylpiperidin-4-yl)-2-(2-methylpyridin-4-yl)-1H-pyrrolo[3,2-c]pyridin-6-amine]	–	–	> 1	–	–
O=C(Nc1cc2[nH]c(-c3ccncc3)cc2cn1)C1CCOCC1 [Example 68, N-(2-(pyridin-4-yl)-1H-pyrrolo[3,2-c]pyridin-6-yl)tetrahydro-2H-pyran-4-carboxamide]	0 to 33	67 to 100	> 1	–	–
Cc1cc(-c2cc3cnc(NC4COC4)cc3[nH]2)ccn1 [Example 113, 2-(2-methylpyridin-4-yl)-N-(oxetan-3-yl)-1H-pyrrolo[3,2-c]pyridin-6-amine]	–	–	> 1	–	–
Cn1cc(Nc2cc3[nH]c(C#N)cc3cn2)cn1 [Example 164, 6-(1-methyl-1H-pyrazol-4-ylamino)-1H-pyrrolo[3,2-c]pyridine-2-carbonitrile]	0 to 33	67 to 100	–	–	–
CC(=O)Nc1cc2[nH]c(-c3cccnc3)cc2cn1 [Example 198, N-(2-(pyridin-3-yl)-1H-pyrrolo[3,2-c]pyridin-6-yl)acetamide]	–	–	–	0 to 33	67 to 100
O=C(Nc1cc2[nH]c(-c3ccncc3)cc2cn1)[C@@H]1CCOC1 [Example 135, (R)-N-(2-(pyridin-4-yl)-1H-pyrrolo[3,2-c]pyridin-6-yl)tetrahydrofuran-3-carboxamide]	0 to 33	67 to 100	–	–	–
Cc1cc(-c2cc3cnc(NC(=O)C4CC4)cc3n2C)ccn1 [Example 83, N-(1-methyl-2-(2-methylpyridin-4-yl)-1H-pyrrolo[3,2-c]pyridin-6-yl)cyclopropanecarboxamide]	0 to 33	0 to 33	> 1	–	–
c1cc(-c2cc3cnc(NC4CCOCC4)cc3[nH]2)ccn1 [Example 353, 2-(pyridin-4-yl)-N-(tetrahydro-2H-pyran-4-yl)-1H-pyrrolo[3,2-c]pyridin-6-amine]	–	–	< 0.5	–	–
CNC(=O)c1ccc(Nc2cc3[nH]c(-c4ccnc(C)c4)cc3cn2)cc1 [Example 190, N-methyl-4-(2-(2-methylpyridin-4-yl)-1H-pyrrolo[3,2-c]pyridin-6-ylamino)benzamide]	0 to 33	67 to 100	–	–	–
Cc1cccc(-c2cc3cnc(NC(=O)C4CC4)cc3n2C)c1 [Example 346, N-(1-methyl-2-m-tolyl-1H-pyrrolo[3,2-c]pyridin-6-yl)cyclopropanecarboxamide]	–	–	> 1	–	–
COc1nccc(-c2cc3cnc(NC(=O)c4cnn(C(C)C)c4)cc3n2C)n1 [Example 309, 1-isopropyl-N-(2-(2-methoxypyrimidin-4-yl)-1-methyl-1H-pyrrolo[3,2-c]pyridin-6-yl)-1H-pyrazole-4-carboxamide]	–	–	–	0 to 33	0 to 33
c1cc(Nc2cc3[nH]c(-c4cccnc4)cc3cn2)cc(-c2nc[nH]n2)c1 [Example 272, N-(3-(1H-1,2,4-triazol-3-yl)phenyl)-2-(pyridin-3-yl)-1H-pyrrolo[3,2-c]pyridin-6-amine]	–	–	–	0 to 33	0 to 33
